The values below come from patent US9802937B2, “Substituted pyrazolo{4,3-D}pyrimidines as kinase inhibitors” (ORIGENIS GMBH, priority 2011, dated 2017).

Bounds are passed on as bounds.

One test has as its target T1, SYK kinase (Homo sapiens, UniProt P43405).
T1 construct: purchased Invitrogen, Carlsbad
Briefly: SYK Assay (OMNIA KINASE ASSAY, SOX peptide fluorescence). It counts as biochemical. As to conditions: apparent Ki calculated from the IC50 using the Cheng-Prusoff equation; 1 mM ATP, 30° C.; read-out: SYK Activities: Ki. The method, boiled down:
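Continuous Omnia assay: SYK phosphorylation of SOX-labelled Tyr 7 peptide (10 µM) with 1 mM ATP and 0.2 mM DTT at 30 °C. Fluorescence (ex 360/em 485 nm) read every 30 s for 30 min. Reaction velocity versus inhibitor concentration gives IC50, converted to apparent Ki by Cheng-Prusoff.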

For a further test, the target named is LRRK2 (Homo sapiens, UniProt Q5S007). Briefly: LRRK2-LRRK2 G2019S-Assay (LanthaScreen Eu Kinase Binding Assay). As to conditions: 5 nM LRRK2 or their mutants, 10 nM tracer 236, RT 1 h; read-out: LRRK2 Activities: IC50. The method, boiled down:
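TR-FRET tracer-displacement binding assay with 5 nM LRRK2 or mutant, 2 nM Eu-anti-GST antibody and 10 nM tracer 236 in kinase buffer A. Incubated 1 h at RT; 665/615 nm emission ratio read (ex 340 nm). IC50 from variable-slope sigmoidal fit.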
For orientation: Time-resolved FRET reads energy transfer from a long-lived donor to a nearby acceptor.

The target in a further test is MYLK (Homo sapiens, UniProt Q15746). Briefly: MYLK Assay (LanthaScreen Eu Kinase Binding Assay). Conditions: 5 nM MYLK, 30 nM tracer 236, RT 1 h; read-out: MYLK Activities: IC50. As for the experimental part:
In the assay LanthaScreen™ Eu Kinase Binding Assay by Invitrogen Corporation (Carlsbad) the effect of invention of a compound on the phosphorylation is determined by measurement of fluorescence intensity emission ratio based on the binding and displacement of a proprietary, Alexa Fluor® 647-labeled, ATP-competitive kinase inhibitor scaffold (kinase tracer) to the kinase of interest as described above.
To the wells of an 384 well small volume plate (Greiner, Frickenhausen) are added (i) the compound under test in 5% is DMSO/distilled water (5 μl), (ii) 5 μl of the kinase antibody mixture resulting in a final concentration 5 nM MYLK, 2 nM EU-Anti-GST antibody in 1× kinase buffer A. The reaction was started with addition of (iii) 5 μl resulting in a final concentration of 30 nM tracer 236. The assay plate was incubated at RT for 1 h and fluorescence intensity readings were collected using a TECAN M1000 at two wavelengths of λex 340/λem 615 nm and λex 340/λem 665 nm with a delay time of 100 μs and an integration time of 200 μs after 60 minutes. The emission ratio was calculated by division of the acceptor/tracer emission ([…]) by the antibody/donor emission ([…]). The inhibitor concentration was plotted versus the emission ratio to determine the IC50 using XLFit 5.0 (IDBS, Guildford) to fit to a sigmoidal dose response curve with a variable slope.

Another test has as its system Syk. Conditions: various stimuli, including FcepsilonR1 and BCR induced Syk activation; cited from earlier work.
In a further test the test system is JAK kinases. Conditions: cited from earlier work.
The subject of test [1] is lymphoma cell lines and primary human lymphoma samples. As to conditions: cited from earlier work.
Test [2] deals with refractory NHL and chronic lymphocytic leukemia. Conditions: phase II; cited from earlier work.

Sequence of LRRK2 (Q5S007 970-2527 limits assumed): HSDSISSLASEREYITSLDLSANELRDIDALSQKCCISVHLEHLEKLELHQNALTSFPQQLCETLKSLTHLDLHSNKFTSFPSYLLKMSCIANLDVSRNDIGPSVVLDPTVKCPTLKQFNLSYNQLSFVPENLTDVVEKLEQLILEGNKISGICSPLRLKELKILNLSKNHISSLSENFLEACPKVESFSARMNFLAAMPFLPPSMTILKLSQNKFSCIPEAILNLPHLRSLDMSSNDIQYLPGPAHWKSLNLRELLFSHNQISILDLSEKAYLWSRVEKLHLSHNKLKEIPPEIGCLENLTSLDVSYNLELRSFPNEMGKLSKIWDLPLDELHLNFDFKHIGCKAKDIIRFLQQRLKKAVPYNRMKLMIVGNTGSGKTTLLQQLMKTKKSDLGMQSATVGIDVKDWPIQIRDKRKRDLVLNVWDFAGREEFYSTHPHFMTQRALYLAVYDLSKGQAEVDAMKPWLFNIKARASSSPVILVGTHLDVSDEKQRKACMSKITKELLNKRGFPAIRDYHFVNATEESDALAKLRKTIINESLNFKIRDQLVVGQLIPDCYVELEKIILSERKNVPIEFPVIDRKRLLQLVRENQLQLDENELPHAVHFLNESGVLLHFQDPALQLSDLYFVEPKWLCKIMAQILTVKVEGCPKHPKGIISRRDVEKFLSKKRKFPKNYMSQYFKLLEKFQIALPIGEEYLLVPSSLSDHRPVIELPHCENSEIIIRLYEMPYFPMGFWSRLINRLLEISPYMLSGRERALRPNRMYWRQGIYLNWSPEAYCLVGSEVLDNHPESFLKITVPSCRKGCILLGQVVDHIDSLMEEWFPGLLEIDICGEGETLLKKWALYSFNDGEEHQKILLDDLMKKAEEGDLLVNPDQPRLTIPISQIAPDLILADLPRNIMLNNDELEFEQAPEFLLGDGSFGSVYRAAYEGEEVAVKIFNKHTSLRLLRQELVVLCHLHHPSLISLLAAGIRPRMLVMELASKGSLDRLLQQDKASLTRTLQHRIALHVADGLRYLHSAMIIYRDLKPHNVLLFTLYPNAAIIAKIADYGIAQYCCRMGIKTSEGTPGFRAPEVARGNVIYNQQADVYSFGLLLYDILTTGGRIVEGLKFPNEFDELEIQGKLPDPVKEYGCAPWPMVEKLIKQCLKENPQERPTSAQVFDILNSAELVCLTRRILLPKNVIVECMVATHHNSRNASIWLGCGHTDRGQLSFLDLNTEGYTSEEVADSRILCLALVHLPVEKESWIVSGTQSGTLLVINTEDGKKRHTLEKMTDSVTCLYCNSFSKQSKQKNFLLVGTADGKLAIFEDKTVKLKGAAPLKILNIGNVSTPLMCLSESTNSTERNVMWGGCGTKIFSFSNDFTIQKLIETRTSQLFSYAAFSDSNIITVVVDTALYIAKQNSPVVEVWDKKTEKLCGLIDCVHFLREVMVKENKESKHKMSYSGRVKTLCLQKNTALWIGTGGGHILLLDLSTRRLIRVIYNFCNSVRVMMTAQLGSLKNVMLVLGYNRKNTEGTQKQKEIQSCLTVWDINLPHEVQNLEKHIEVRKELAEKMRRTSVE
Sequence of MYLK (Q15746 whole entry): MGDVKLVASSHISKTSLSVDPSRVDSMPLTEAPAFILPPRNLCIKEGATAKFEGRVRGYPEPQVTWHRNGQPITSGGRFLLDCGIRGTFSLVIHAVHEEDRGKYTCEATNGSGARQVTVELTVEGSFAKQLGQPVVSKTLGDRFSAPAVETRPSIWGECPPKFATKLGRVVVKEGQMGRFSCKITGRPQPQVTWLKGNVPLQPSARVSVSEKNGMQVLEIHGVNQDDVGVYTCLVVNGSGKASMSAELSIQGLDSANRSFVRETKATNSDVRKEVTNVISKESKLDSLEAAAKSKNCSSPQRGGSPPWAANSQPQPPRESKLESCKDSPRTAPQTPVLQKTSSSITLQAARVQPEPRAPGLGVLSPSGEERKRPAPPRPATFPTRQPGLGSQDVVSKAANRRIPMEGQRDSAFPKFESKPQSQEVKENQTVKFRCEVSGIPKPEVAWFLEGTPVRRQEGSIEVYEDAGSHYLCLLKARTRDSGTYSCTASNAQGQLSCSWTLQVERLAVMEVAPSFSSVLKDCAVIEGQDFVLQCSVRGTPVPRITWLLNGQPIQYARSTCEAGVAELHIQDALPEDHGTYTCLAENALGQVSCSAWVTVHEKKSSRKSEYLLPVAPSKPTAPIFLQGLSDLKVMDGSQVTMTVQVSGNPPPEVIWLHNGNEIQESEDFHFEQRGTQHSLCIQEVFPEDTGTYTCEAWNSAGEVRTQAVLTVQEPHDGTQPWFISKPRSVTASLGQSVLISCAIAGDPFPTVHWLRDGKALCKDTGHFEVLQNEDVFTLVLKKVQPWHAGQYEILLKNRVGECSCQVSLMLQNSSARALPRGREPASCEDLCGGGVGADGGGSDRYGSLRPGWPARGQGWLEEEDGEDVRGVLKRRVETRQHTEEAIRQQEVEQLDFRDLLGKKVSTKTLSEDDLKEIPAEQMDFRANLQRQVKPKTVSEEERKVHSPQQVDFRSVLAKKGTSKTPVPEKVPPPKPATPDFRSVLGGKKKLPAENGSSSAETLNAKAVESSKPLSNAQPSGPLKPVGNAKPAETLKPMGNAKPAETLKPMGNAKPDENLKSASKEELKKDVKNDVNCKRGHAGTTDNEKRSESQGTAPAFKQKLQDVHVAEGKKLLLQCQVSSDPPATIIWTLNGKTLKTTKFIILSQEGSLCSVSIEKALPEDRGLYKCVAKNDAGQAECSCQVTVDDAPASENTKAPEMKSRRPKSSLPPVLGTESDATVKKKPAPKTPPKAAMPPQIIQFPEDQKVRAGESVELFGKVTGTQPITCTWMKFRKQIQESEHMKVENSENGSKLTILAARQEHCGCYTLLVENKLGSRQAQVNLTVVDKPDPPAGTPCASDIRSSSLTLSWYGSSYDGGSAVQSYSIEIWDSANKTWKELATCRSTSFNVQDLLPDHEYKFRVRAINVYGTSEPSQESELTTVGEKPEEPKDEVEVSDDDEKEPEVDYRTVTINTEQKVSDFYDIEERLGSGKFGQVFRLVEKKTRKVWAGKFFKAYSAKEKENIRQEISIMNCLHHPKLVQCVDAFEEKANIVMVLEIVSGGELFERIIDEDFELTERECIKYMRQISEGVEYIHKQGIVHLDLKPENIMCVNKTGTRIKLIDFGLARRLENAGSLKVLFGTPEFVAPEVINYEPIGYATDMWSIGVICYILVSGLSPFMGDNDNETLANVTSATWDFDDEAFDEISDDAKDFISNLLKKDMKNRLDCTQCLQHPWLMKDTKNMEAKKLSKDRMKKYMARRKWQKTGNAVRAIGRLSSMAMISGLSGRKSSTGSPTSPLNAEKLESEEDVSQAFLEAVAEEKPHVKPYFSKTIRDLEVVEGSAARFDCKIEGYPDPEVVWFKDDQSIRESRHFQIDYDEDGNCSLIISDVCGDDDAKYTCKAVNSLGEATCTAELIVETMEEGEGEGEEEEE

What is called IC50 is the concentration that inhibits the measured activity by half. Take `COc1ccc(Nc2nc(-c3cccc(NS(C)(=O)=O)c3)nc3cn[nH]c23)cc1OC` [Example #189, N-(3-(7-((3,4-dimethoxyphenyl)amino)-1H-pyrazolo[4,3-d]pyrimidin-5-yl)phenyl)methanesulfonamide]: the Ki on SYK kinase was less than 0.01 µM. In addition, the IC50 on LRRK2 was 0.1 to 1 µM; on MYLK it was less than 5 µM.

Regarding `CS(=O)(=O)Nc1cccc(-c2nc(Nc3ccc4c(c3)NC(=O)CC4)c3[nH]ncc3n2)c1` [Example #190, N-(3-(7-((2-oxo-1,2,3,4-tetrahydroquinolin-7-yl)amino)-1H-pyrazolo[4,3-d]pyrimidin-5-yl)phenyl)methanesulfonamide], the Ki on SYK kinase is less than 0.01 µM. In addition, the IC50 at LRRK2 was 0.01 to 0.1 µM; at MYLK, less than 5 µM.

With `CC(=O)N1CCN(c2ccc(Nc3nc(-c4cccc(NS(C)(=O)=O)c4)nc4cn[nH]c34)cc2)CC1` [Example #191, N-(3-(7-((4-(4-acetylpiperazin-1-yl)phenyl)amino)-1H-pyrazolo[4,3-d]pyrimidin-5-yl)phenyl)methanesulfonamide], at SYK kinase, the Ki was less than 0.01 µM. Also, the figures for the IC50 on LRRK2 and on MYLK were 0.1 to 1 µM and less than 5 µM, respectively.

With `CSc1cccc(-c2nc(Nc3ccc(N4CCN(C)CC4)cc3)c3[nH]ncc3n2)c1` [Example #225, N-(4-(4-methylpiperazin-1-yl)phenyl)-5-(3-(methylthio)phenyl)-1H-pyrazolo[4,3-d]pyrimidin-7-amine], the Ki at SYK kinase is less than 0.01 µM. Besides, the values for the IC50 at LRRK2 and on MYLK were 0.1 to 1 µM and less than 5 µM, respectively.

On to `NS(=O)(=O)c1cccc(-c2nc(Nc3ccc4c(c3)NC(=O)CC4)c3[nH]ncc3n2)c1` [Example #238, 3-(7-((2-oxo-1,2,3,4-tetrahydroquinolin-7-yl)amino)-1H-pyrazolo[4,3-d]pyrimidin-5-yl)benzenesulfonamide], for which the Ki at SYK kinase is less than 0.01 µM. Besides, the figures for the half-maximal inhibitory concentration (IC50) at LRRK2 and at MYLK were 0.01 to 0.1 µM and less than 5 µM, respectively.

For `COc1cc(Nc2nc(-c3cccc(S(N)(=O)=O)c3)nc3cn[nH]c23)ccc1N1CCOCC1` [Example #240, 3-(7-((3-methoxy-4-morpholinophenyl)amino)-1H-pyrazolo[4,3-d]pyrimidin-5-yl)benzenesulfonamide], on SYK kinase, the Ki was less than 0.01 µM. The IC50 on LRRK2 is 0.1 to 1 µM; on MYLK it was less than 5 µM.

Consider `c1cc(N2CCOCC2)ccc1Nc1nc(-c2ccc3cn[nH]c3c2)nc2cn[nH]c12` [Example #247, 5-(1H-indazol-6-yl)-N-(4-morpholinophenyl)-1H-pyrazolo[4,3-d]pyrimidin-7-amine], for which the Ki at SYK kinase was less than 0.01 µM. For the same compound, the IC50 at LRRK2 was less than 0.01 µM; at MYLK, less than 5 µM.

Regarding `CN1CCN(c2ccc(Nc3nc(-c4ccc5cn[nH]c5c4)nc4cn[nH]c34)cc2)CC1` [Example #248, 5-(1H-indazol-6-yl)-N-(4-(4-methylpiperazin-1-yl)phenyl)-1H-pyrazolo[4,3-d]pyrimidin-7-amine], the Ki at SYK kinase is less than 0.01 µM. Besides, the values for the IC50 at LRRK2 and at MYLK were 0.1 to 1 µM and less than 5 µM, respectively.

As to `CS(=O)(=O)c1cccc(Nc2nc(-c3cccs3)nc3cn[nH]c23)c1` [Example #254, N-(3-(methylsulfonyl)phenyl)-5-(thiophen-2-yl)-1H-pyrazolo[4,3-d]pyrimidin-7-amine], at SYK kinase, the Ki was 0.01 to 0.1 µM. Further, the IC50 on LRRK2 was 0.1 to 1 µM; at MYLK it was less than 5 µM.

In the case of `C[S+]([O-])c1cccc(Nc2nc(-c3cccs3)nc3cn[nH]c23)c1` (centres unmarked) [Example #268, N-(3-(methylsulfinyl)phenyl)-5-(thiophen-2-yl)-1H-pyrazolo[4,3-d]pyrimidin-7-amine], on SYK kinase, the Ki was 0.01 to 0.1 µM. Further, the values for the IC50 on LRRK2 and at MYLK were 0.1 to 1 µM and less than 5 µM, respectively.

Consider `CN1CCN(c2ccc(Nc3nc(-c4ccccc4F)nc4cn[nH]c34)cc2)CC1` [Example #275, 5-(2-fluorophenyl)-N-(4-(4-methylpiperazin-1-yl)phenyl)-1H-pyrazolo[4,3-d]pyrimidin-7-amine], for which, at SYK kinase, the Ki is less than 0.01 µM. In addition, the IC50 is 0.1 to 1 µM on LRRK2 and less than 5 µM at MYLK.

Take `Fc1ccccc1-c1nc(Nc2ccc(N3CCN(C4CC4)CC3)cc2)c2[nH]ncc2n1` [Example #279, N-(4-(4-cyclopropylpiperazin-1-yl)phenyl)-5-(2-fluorophenyl)-1H-pyrazolo[4,3-d]pyrimidin-7-amine]: at SYK kinase, the Ki was 0.01 to 0.1 µM. The IC50 is 0.1 to 1 µM at LRRK2 and less than 5 µM at MYLK.

For the compound `COc1ccc(Nc2nc(-c3ccc4cn[nH]c4c3)nc3cn[nH]c23)cc1OC` [Example #280, N-(3,4-dimethoxyphenyl)-5-(1H-indazol-6-yl)-1H-pyrazolo[4,3-d]pyrimidin-7-amine], the Ki on SYK kinase was less than 0.01 µM. Further, the IC50 is 0.01 to 0.1 µM on LRRK2 and less than 5 µM on MYLK.

Take `CN1CCN(C2CCN(c3ccc(Nc4nc(-c5c(F)cccc5F)nc5cn[nH]c45)cc3)CC2)CC1` [Example #284, 5-(2,6-difluorophenyl)-N-(4-(4-(4-methylpiperazin-1-yl)piperidin-1-yl)phenyl)-1H-pyrazolo[4,3-d]pyrimidin-7-amine]: at SYK kinase, the Ki was 0.01 to 0.1 µM. Further, the IC50 is 0.1 to 1 µM on LRRK2 and less than 5 µM on MYLK.

As for `CN1CCN(C2CCN(c3ccc(Nc4nc(-c5cccs5)nc5cn[nH]c45)cc3)CC2)CC1` [Example #290, N-(4-(4-(4-methylpiperazin-1-yl)piperidin-1-yl)phenyl)-5-(thiophen-2-yl)-1H-pyrazolo[4,3-d]pyrimidin-7-amine], at SYK kinase, the Ki was less than 0.01 µM. Moreover, the figures for the IC50 on LRRK2 and at MYLK were 0.1 to 1 µM and less than 5 µM, respectively.

As for `c1csc(-c2nc(Nc3ccc(N4CCN(C5CC5)CC4)cc3)c3[nH]ncc3n2)c1` [Example #293, N-(4-(4-cyclopropylpiperazin-1-yl)phenyl)-5-(thiophen-2-yl)-1H-pyrazolo[4,3-d]pyrimidin-7-amine], on SYK kinase, the Ki was less than 0.01 µM. Moreover, the IC50 on LRRK2 is 0.1 to 1 µM; on MYLK, less than 5 µM.

In the case of `O=C(c1ccc(Nc2nc(-c3cccs3)nc3cn[nH]c23)cc1)N1CCOCC1` [Example #294, morpholino(4-((5-(thiophen-2-yl)-1H-pyrazolo[4,3-d]pyrimidin-7-yl)amino)phenyl)methanone], at SYK kinase, the Ki is 0.01 to 0.1 µM. The IC50 is 0.1 to 1 µM on LRRK2 and less than 5 µM at MYLK.

As for `c1csc(-c2nc(Nc3ccc(CN4CCOCC4)cc3)c3[nH]ncc3n2)c1` [Example #295, N-(4-(morpholinomethyl)phenyl)-5-(thiophen-2-yl)-1H-pyrazolo[4,3-d]pyrimidin-7-amine], the Ki at SYK kinase was less than 0.01 µM. Also, the IC50 was 0.1 to 1 µM at LRRK2 and less than 5 µM on MYLK.

As for `COc1cc(Nc2ncc(F)c(Nc3ccc4c(n3)NC(=O)C(C)(C)O4)n2)cc(OC)c1OC` [Example R406], the “inhibition of ITAM signaling” value in the test with Syk is “inhibit ITAM signaling”. Also, in the test with JAK kinases, the “activity against JAK kinases” value was “active”. Besides, the BCR signaling entry in test [1] (lymphoma cell lines and primary human lymphoma samples) is reported as “attenuates BCR signaling”. In test [1] (lymphoma cell lines), the apoptosis result is listed as “resulting in apoptosis of the former”. The clinical result in test [2] is on record as “favorable results”.
